Read-outs that look alike come from different tables or passages of the source.
Biological target: T1, NRH-quinone oxidoreductase 2 (NQO2-F47) (Homo sapiens, UniProt P16083, L47F)
T1 sequence (P16083 1-231 L47F): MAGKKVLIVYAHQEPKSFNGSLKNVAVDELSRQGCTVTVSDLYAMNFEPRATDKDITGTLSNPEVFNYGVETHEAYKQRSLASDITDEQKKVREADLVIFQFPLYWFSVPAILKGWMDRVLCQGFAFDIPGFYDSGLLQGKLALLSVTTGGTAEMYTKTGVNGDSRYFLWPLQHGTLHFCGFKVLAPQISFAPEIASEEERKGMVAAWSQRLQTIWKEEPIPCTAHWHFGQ
Assay: thermal scanning fluorimetry KD,app (FAD fluorescence)
Format: binding

Structure (SMILES)	Kd (read-out: Kd) [mM]	Kd [mM]
O=c1oc2ccccc2c(O)c1Cc1c(O)c2ccccc2oc1=O [dicoumarol]	0.0337 ± 0.0026	–
NC(=O)c1cccnc1 [nicotinamide]	–	14.4 ± 1.1
